Experiment: HCV replicon assay (luciferase) in ET (Huh-lucubineo-ET) cell line
Type: cell-based
Conditions: Hepatitis C virus, inhibition of replication relative to no compound control, ET replicon cells, luciferase 48-72 hours; for inhibition at 5 µM: tested at 5 μM; for inhibition at 10 µM: tested at 10 μM, read-out: % inhition at 10 μM
Excerpt: A cell line, ET (Huh-lucubineo-ET) was used for screening of compounds, or pharmaceutically acceptable salts or solvates, described herein for inhibition of HCV RNA dependent RNA polymerase. The ET cell line was stably transfected with RNA transcripts harboring a I389luc-ubi-neo/NS3-3′/ET; replicon with firefly luciferase-ubiquitin-neomycin phosphotransferase fusion protein and EMCV-IRES driven NS3-5B polyprotein containing the cell culture adaptive mutations (E1202G; T1280I; K1846T) (Krieger at al, 2001 and unpublished). The ET cells were grown in DMEM, supplemented with 10% fetal calf serum, 2 mM Glutamine, Penicillin (100 IU/mL)/Streptomycin (100 μg/mL), 1× nonessential amino acids, and 250 μg/mL G418 (“Geneticin”). They were all available through Life Technologies (Bethesda, Md.). The cells were plated at 0.5−1.0×10^4 cells/well in the 96 well plates and incubated for 24 hrs before adding the test compounds. […] Luciferase activity was measured 48-72 hours later by adding a lysis buffer and the substrate (Catalog number Glo-lysis buffer E2661 and Bright-Glo luciferase system E2620 Promega, Madison, Wis.). Cells should not be too confluent during the assay. Percent inhibition of replication was plotted relative to no compound control. Under the same condition, cytotoxicity of the compounds was determined using cell proliferation reagent, WST-1 (Roche, Germany). The compounds showing antiviral activities, but no significant cytotoxicities were chosen to determine the EC50 and TC50, the effective concentration and toxic concentration at which 50% of the maximum inhibition is observed. For these determinations, 6 dilutions of each compound were used. Compounds were typically diluted 3 fold to span a concentration range of 250 fold. EC50 and similarly TC50 values were calculated by fitting % inhibition at each concentration to the following equation:
% inhibition=100%/[(EC50/[I])^b+1]
where b is Hill's coefficient.

SMILES	inhibition at 5 µM [%]	inhibition at 10 µM [%]
Fc1ccc(-c2cc(Cn3cc4nc(-c5cccc(F)c5F)nc-4cn3)on2)c(C(F)(F)F)c1 [Compound 101, 2-(2,3-Difluoro-phenyl)-5-[3-(4-fluoro-2-trifluoromethyl-phenyl)-isoxazol-5-ylmethyl]-5H-imidazo[4,5-d]pyridazine]	80.3	92.9
CC(C)Oc1ccc(-c2cc(Cn3cc4nc(-c5cccc(F)c5F)nc-4cn3)on2)cc1 [Compound 102, 2-(2,3-Difluoro-phenyl)-5-[3-(4-isopropoxy-phenyl)-isoxazol-5-ylmethyl]-5H-imidazo[4,5-d]pyridazine]	99.8	99.7
Fc1cccc(-c2nc3cnn(Cc4cc(-c5ccc(C(F)(F)F)cc5C(F)(F)F)no4)cc-3n2)c1F [Compound 103, 5-[3-(2,4-Bis-trifluoromethyl-phenyl)-isoxazol-5-ylmethyl]-2-(2,3-difluoro-phenyl)-5H-imidazo[4,5-d]pyridazine]	100	100
Fc1cccc(-c2nc3cnn(Cc4cc(-c5ccc(Cl)cc5)no4)cc-3n2)c1F [Compound 104, 5-[3-(4-Chloro-phenyl)-isoxazol-5-ylmethyl]-2-(2,3-difluoro-phenyl)-5H-imidazo[4,5-d]pyridazine]	99.7	99.7
CCCOc1ccc(-c2cc(Cn3cc4nc(-c5cccc(F)c5F)nc-4cn3)on2)cc1 [Compound 105, 2-(2,3-Difluoro-phenyl)-5-[3-(4-propoxy-phenyl)-isoxazol-5-ylmethyl]-5H-imidazo[4,5-d]pyridazine]	99.9	99.7
CCCCOc1ccc(-c2cc(Cn3cc4nc(-c5ccccc5F)nc-4cn3)on2)cc1 [Compound 106, 5-[3-(4-Butoxy-phenyl)-isoxazol-5-ylmethyl]-2-(2-fluoro-phenyl)-5H-imidazo[4,5-d]pyridazine]	99.3	99.7
CCCCCOc1ccc(-c2cc(Cn3cc4nc(-c5ccccc5F)nc-4cn3)on2)cc1 [Compound 107, 2-(2-Fluoro-phenyl)-5-[3-(4-pentyloxy-phenyl)-isoxazol-5-ylmethyl]-5H-imidazo[4,5-d]pyridazine]	98.4	99.4
Fc1ccccc1-c1nc2cnn(Cc3cc(-c4ccc(OC(F)(F)F)cc4)no3)cc-2n1 [Compound 108, 2-(2-Fluoro-phenyl)-5-[3-(4-trifluoromethoxy-phenyl)-isoxazol-5-ylmethyl]-5H-imidazo[4,5-d]pyridazine]	99.9	100
COc1ccc(-c2cc(Cn3cc4nc(-c5ccccc5F)nc-4cn3)on2)cc1 [Compound 109, 2-(2-Fluoro-phenyl)-5-[3-(4-methoxy-phenyl)-isoxazol-5-ylmethyl]-5H-imidazo[4,5-d]pyridazine]	98	95.4
CCOc1ccc(-c2cc(Cn3cc4nc(-c5ccccc5F)nc-4cn3)on2)cc1 [Compound 110, 5-[3-(4-Ethoxy-phenyl)-isoxazol-5-ylmethyl]-2-(2-fluoro-phenyl)-55H-imidazo[4,5-d]pyridazine]	99.4	97.4
Fc1ccccc1-c1nc2cnn(Cc3cc(-c4ccccc4)no3)cc-2n1 [Compound 111, 2-(2-Fluoro-phenyl)-5-(3-phenyl-isoxazol-5-ylmethyl)-5H-imidazo[4,5-d]pyridazine]	16	
CC(C)Oc1ccc(-c2cc(Cn3cc4nc(-c5ccccc5F)nc-4cn3)on2)cc1 [Compound 112, 2-(2-Fluoro-phenyl)-5-[3-(4-isopropoxy-phenyl)-isoxazol-5-ylmethyl]-5H-imidazo[4,5-d]pyridazine]	80.9	85.9
Fc1ccccc1-c1nc2cnn(Cc3nc(-c4ccc(Cl)cc4)no3)cc-2n1 [Compound 113, 5-[3-(4-Chloro-phenyl)-[1,2,4]oxadiazol-5-ylmethyl]-2-(2-fluoro-phenyl)-5H-imidazo[4,5-d]pyridazine]	24.9	41.7
Fc1ccccc1-c1nc2cnn(Cc3cc(-c4ccc(C(F)(F)F)cc4C(F)(F)F)no3)cc-2n1 [Compound 114, 5-[3-(2,4-Bis-trifluoromethyl-phenyl)-isoxazol-5-ylmethyl]-2-(2-fluoro-phenyl)-5H-imidazo[4,5-d]pyridazine]	99.3	98.5
Fc1ccc(-c2cc(Cn3cc4nc(-c5ccccc5F)nc-4cn3)on2)c(C(F)(F)F)c1 [Compound 115, 2-(2-Fluoro-phenyl)-5-[3-(4-fluoro-2-trifluoromethyl-phenyl)-isoxazol-5-ylmethyl]-5H-imidazo[4,5-d]pyridazine]	67.6	75.3
Fc1ccccc1-c1nc2cnn(Cc3cc(-c4ccc(Cl)cc4)no3)cc-2n1 [Compound 116, 5-[3-(4-Chloro-phenyl)-isoxazol-5-ylmethyl]-2-(2-fluoro-phenyl)-5H-imidazo[4,5-d]pyridazine]	92.1	92.8
CCCOc1ccc(-c2cc(Cn3cc4nc(-c5ccccc5F)nc-4cn3)on2)cc1 [Compound 117, 2-(2-Fluoro-phenyl)-5-[3-(4-propoxy-phenyl)-isoxazol-5-ylmethyl]-5H-imidazo[4,5-d]pyridazine]	99.8	99.1
Nc1ccccc1-c1nc2cnn(Cc3cc(-c4ccc(C(F)(F)F)cc4C(F)(F)F)no3)cc-2n1 [Compound 119, 2-{5-[3-(2,4-Bis-trifluoromethyl-phenyl)-isoxazol-5-ylmethyl]-5H-imidazo[4,5-d]pyridazine-2-yl}-phenylamine]		0
NC(=O)c1ccccc1-c1nc2cnn(Cc3cc(-c4ccc(C(F)(F)F)cc4C(F)(F)F)no3)cc-2n1 [Compound 133, 2-{5-[3-(2,4-Bis-trifluoromethyl-phenyl)-isoxazol-5-ylmethyl]-5H-imidazo[4,5-d]pyridazin-2-yl}-benzamide]		10.1
Oc1ccccc1-c1nc2cnn(Cc3cc(-c4ccc(C(F)(F)F)cc4C(F)(F)F)no3)cc-2n1 [Compound 134, 2-{5-[3-(2,4-Bis-trifluoromethyl-phenyl)-isoxazol-5-ylmethyl]-5H-imidazo[4,5-d]pyridazin-2-yl}-phenol]		0.51
FC(F)(F)c1ccc(-c2nc3cnn(Cc4cc(-c5ccc(C(F)(F)F)cc5C(F)(F)F)no4)cc-3n2)cc1 [Compound 135, 5-[3-(2,4-Bis-trifluoromethyl-phenyl)-isoxazol-5-ylmethyl]-2-(4-trifluoromethyl-phenyl)-5H-imidazo[4,5-d]pyridazine]		0.79
FC(F)(F)c1ccc(-c2cc(Cn3cc4nc(-c5cccc6[nH]ccc56)nc-4cn3)on2)c(C(F)(F)F)c1 [Compound 136, 5-[3-(2,4-Bis-trifluoromethyl-phenyl)-isoxazol-5-ylmethyl]-2-(1H-indol-4-yl)-5H-imidazo[4,5-d]pyridazine]		5.84
CC(=O)c1ccc(F)c(-c2nc3cnn(Cc4cc(-c5ccc(C(F)(F)F)cc5C(F)(F)F)no4)cc-3n2)c1 [Compound 137, 1-(3-{5-[3-(2,4-Bis-trifluoromethyl-phenyl)-isoxazol-5-ylmethyl]-5H-imidazo[4,5-d]pyridazin-2-yl}-4-fluoro-phenyl)-ethanone]		40.4
CCCOc1ccc(-c2cc(Cn3cc4nc(-c5ccc(OC)cc5)nc-4cn3)on2)cc1 [Compound 138, 2-(4-Methoxy-phenyl)-5-[3-(4-propoxy-phenyl)-isoxazol-5-ylmethyl]-5H-imidazo[4,5-d]pyridazine]		48.8
FC(F)(F)c1ccc(-c2cc(Cn3cc4nc(-c5ccc6[nH]ccc6c5)nc-4cn3)on2)c(C(F)(F)F)c1 [Compound 139, 5-[3-(2,4-Bis-trifluoromethyl-phenyl)-isoxazol-5-ylmethyl]-2-(1H-indol-5-yl)-5H-imidazo[4,5-d]pyridazine]		51.1
Fc1cccc(F)c1-c1nc2cnn(Cc3cc(-c4ccc(C(F)(F)F)cc4C(F)(F)F)no3)cc-2n1 [Compound 140, 5-[3-(2,4-Bis-trifluoromethyl-phenyl)-isoxazol-5-ylmethyl]-2-(2,6-difluoro-phenyl)-5H-imidazo[4,5-d]pyridazine]		82.7
FC(F)(F)c1ccc(-c2cc(Cn3cc4nc(-c5ccco5)nc-4cn3)on2)c(C(F)(F)F)c1 [Compound 142, 5-[3-(2,4-Bis-trifluoromethyl-phenyl)-isoxazol-5-ylmethyl]-2-furan-2-yl-5H-imidazo[4,5-d]pyridazine]		66.3
FC(F)(F)c1ccc(-c2cc(Cn3cc4nc(-c5cccs5)nc-4cn3)on2)c(C(F)(F)F)c1 [Compound 143, 5-[3-(2,4-Bis-trifluoromethyl-phenyl)-isoxazol-5-ylmethyl]-2-thiophen-2-yl-5H-imidazo[4,5-d]pyridazine]		96.1
